Results published in US20240150358A1, “PURINES AND METHODS OF THEIR USE” (Kineta, Inc., priority 2020, published 2024).
pIC50: −log10 of the molar value.

Each compound was assayed against full-length human PIKFYVE (Homo sapiens (Human), UniProt Q9Y2I7, L932S/Q1183K/Q995L/S1033A/S696N/T998S) (assay: PIKfyve biochemical assay (ADP-Glo Kinase assay, Carna Biosciences)). Conditions: ADP-Glo, GST-PIKFYVE, 10 μM to 3 nM; read-out: hPIKfyve IC50.
full-length human PIKFYVE, sequence (Q9Y2I7 whole entry S696N/L932S/Q995L/T998S/S1033A/Q1183K): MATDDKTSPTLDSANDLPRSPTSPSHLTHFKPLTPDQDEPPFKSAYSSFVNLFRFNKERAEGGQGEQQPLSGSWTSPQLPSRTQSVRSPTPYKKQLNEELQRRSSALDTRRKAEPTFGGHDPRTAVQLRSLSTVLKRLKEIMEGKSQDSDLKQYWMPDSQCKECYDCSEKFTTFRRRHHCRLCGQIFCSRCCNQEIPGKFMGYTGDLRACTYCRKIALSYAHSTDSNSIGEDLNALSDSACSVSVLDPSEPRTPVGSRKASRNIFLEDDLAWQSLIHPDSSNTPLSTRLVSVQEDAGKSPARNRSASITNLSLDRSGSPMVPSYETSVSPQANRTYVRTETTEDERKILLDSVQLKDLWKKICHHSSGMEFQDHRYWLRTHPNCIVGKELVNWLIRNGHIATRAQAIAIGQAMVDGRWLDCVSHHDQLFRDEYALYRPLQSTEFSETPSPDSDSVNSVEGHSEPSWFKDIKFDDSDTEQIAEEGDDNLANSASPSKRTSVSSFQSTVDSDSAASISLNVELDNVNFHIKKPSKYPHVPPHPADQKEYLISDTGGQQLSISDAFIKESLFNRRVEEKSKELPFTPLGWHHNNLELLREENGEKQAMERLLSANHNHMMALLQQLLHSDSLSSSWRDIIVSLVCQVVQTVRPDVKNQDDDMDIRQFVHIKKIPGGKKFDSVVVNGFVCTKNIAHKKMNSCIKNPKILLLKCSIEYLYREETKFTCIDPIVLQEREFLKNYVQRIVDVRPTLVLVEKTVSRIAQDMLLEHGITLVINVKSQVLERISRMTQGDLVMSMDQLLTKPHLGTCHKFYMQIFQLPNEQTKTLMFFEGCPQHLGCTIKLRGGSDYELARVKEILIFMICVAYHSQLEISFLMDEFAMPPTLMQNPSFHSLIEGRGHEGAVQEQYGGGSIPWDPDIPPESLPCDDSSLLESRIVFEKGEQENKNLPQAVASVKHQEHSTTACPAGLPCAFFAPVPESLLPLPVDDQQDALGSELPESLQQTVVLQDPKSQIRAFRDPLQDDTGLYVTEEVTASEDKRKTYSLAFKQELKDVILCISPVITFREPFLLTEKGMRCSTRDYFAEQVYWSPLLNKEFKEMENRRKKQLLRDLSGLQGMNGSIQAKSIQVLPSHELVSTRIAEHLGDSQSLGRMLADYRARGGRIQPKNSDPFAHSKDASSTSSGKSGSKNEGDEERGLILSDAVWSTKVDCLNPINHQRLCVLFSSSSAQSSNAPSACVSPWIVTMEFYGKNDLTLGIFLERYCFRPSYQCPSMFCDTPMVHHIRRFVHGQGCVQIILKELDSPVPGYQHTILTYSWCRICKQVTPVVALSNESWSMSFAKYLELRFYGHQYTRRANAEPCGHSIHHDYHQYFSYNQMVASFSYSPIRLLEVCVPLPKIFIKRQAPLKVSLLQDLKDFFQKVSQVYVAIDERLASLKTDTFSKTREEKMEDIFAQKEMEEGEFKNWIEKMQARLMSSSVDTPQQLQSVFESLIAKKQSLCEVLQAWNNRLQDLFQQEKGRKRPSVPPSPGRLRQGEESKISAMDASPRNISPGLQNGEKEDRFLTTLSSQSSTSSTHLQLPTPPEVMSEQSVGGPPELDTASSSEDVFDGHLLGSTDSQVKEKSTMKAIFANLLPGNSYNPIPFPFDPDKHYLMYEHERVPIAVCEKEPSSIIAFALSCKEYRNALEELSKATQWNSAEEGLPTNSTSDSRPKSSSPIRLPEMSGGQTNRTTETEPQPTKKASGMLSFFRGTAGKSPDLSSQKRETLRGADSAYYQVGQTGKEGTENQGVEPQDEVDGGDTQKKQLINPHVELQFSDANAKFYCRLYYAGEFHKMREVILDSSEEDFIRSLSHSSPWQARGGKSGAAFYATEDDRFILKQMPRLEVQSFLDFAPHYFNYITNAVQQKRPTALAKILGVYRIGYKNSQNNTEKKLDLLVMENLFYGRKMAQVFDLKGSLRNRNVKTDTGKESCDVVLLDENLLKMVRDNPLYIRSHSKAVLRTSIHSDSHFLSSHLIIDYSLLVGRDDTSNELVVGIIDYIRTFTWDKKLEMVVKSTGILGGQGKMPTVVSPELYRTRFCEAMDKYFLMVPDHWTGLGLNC
Experimental: (§1) PIKfyve Biochemical Assay. The biochemical PIKFyve inhibition assays were run by Carna Biosciences according to proprietary methodology based on the Promega ADP-Glo™ Kinase assay. […] GST-PIKFYVE was purified by using glutathione sepharose chromatography and used in an ADP-Glo™ Kinase assay (Promega). Reactions were set up by adding the test compound solution, substrate solution, ATP solution and kinase solution, each at 4× final concentrations. Reactions were prepared with assay buffer (50 mM MOPS, 1 mM DTT, pH7.2), mixed, and incubated in black 384 well polystyrene plates for 1 hour at room temperature. ADPGlo™ reagent was then added for 40 minutes, followed by kinase detection reagent for an additional 40 minutes. The kinase activity was evaluated by detecting relative light units on a luminescence plate reader. Samples were run in duplicate from 10 μM to 3 nM. […] IC50 values were calculated from concentration vs % inhibition curves by fitting to a four-parameter logistic curve.
as §1, with “The” for “PIKfyve Biochemical Assay. The”, “ADP-Glo™” for “ADPGlo™”, “uM” for “μM”, “curve. […]” for “curve.”
Cn1c(C2CCOCC2)nc2c(N3CCOCC3)nc(-n3ccc(C4CCCNC4)n3)nc21 (centres unmarked) [Compound 16] was tested, and the pIC50 was 5.00 to 6.00. Work on Cn1c(C2CCCNC2)nc2c(N3CCOCC3)nc(-n3ccc(-c4ccccc4)n3)nc21 (centres unmarked) [Compound 10] yielded a pIC50 of 6.00 to 7.00. Compound c1ccc(-c2nccc(-c3nc(N4CCOCC4)c4cc(-c5ccncc5)sc4n3)n2)cc1 [Compound 122] has a pIC50 of 7.00 to 8.00. Cn1c(-c2ccncc2)nc2c(N3CCOCC3)nc(-n3cc(-c4ccccc4)cn3)nc21 [Compound 92, 4-(9-methyl-2-(4-phenyl-1H-pyrazol-1-yl)-8-(pyridin-4-yl)-9H-purin-6-yl)morpholine] showed a pIC50 of 7.00 to 8.00. CN1CC(Cc2ccn(-c3nc(N4CCOCC4)c4nc(-c5ccncc5)n(C)c4n3)n2)C1 [Compound 86, 4-(9-methyl-2-(3-((1-methylazetidin-3-yl)methyl)-1H-pyrazol-1-yl)-8-(pyridin-4-yl)-9H-purin-6-yl)morpholine] was tested, and the pIC50 was > 8.00. In the case of Cn1c(-c2ccncc2)nc2c(N3CCOCC3)nc(-c3ccc4c(c3)NCCC4)nc21 [Compound 114, 4-(9-methyl-8-(pyridin-4-yl)-2-(1,2,3,4-tetrahydroquinolin-7-yl)-9H-purin-6-yl)morpholine], the pIC50 was > 8.00. Cn1c(C2CCOCC2)nc2c(N3CCOCC3)nc(-n3ccc(-c4cccnc4)n3)nc21 [Compound 19, 4-(9-methyl-2-(3-(pyridin-3-yl)-1H-pyrazol-1-yl)-8-(tetrahydro-2H-pyran-4-yl)-9H-purin-6-yl)morpholine] showed a pIC50 of 5.00 to 6.00. In the case of Cc1cccc(/C=N/Nc2nc(N3CCOCC3)c3nc(-c4ccncc4)sc3n2)c1 [Compound 121], the pIC50 was > 8.00. Compound Cn1c(-c2ccncc2)nc2nc(-c3ccnc(-c4ccccc4)n3)nc(N3CCOCC3)c21 [Compound 2, 7-methyl-6-(morpholin-4-yl)-2-(2-phenylpyrimidin-4-yl)-8-(pyridin-4-yl)-7H-purine] has a pIC50 of 5.00 to 6.00. Work on Cn1c(C2CCOCC2)nc2c(N3CCOCC3)nc(-n3ccc(-c4cncnc4)n3)nc21 [Compound 20] yielded a pIC50 of 5.00 to 6.00. Work on Cn1c(-c2ccncc2)nc2c(N3CCOCC3)nc(NC3CCCC3)nc21 [Compound 102, N-cyclopentyl-9-methyl-6-morpholino-8-(pyridin-4-yl)-9H-purin-2-amine] yielded a pIC50 of 7.00 to 8.00. c1ccc(-c2nccc(-c3nc(N4CCOCC4)c4nc(-c5ccncc5)sc4n3)n2)cc1 [Compound 123] was tested, and the pIC50 was 7.00 to 8.00. CN1CC(c2ccn(-c3nc(N4CCOCC4)c4nc(-c5ccncc5)n(C)c4n3)n2)CCC1=O (centres unmarked) [Compound 88, 1-methyl-5-(1-(9-methyl-6-morpholino-8-(pyridin-4-yl)-9H-purin-2-yl)-1H-pyrazol-3-yl)piperidin-2-one] was tested, and the pIC50 was > 8.00. Work on Cn1c(-c2ccncc2)nc2c(N3CCOCC3)nc(-c3ccn(C4CCCN(C(=O)OC(C)(C)C)C4)n3)nc21 (centres unmarked) [Compound 43] yielded a pIC50 of 6.00 to 7.00. Cn1c(-c2ccncc2)nc2c(N3CCOCC3)nc(-n3ccc(CC4CN(C(=O)OC(C)(C)C)C4)n3)nc21 [Compound 84, tert-butyl 3-((1-(9-methyl-6-morpholino-8-(pyridin-4-yl)-9H-purin-2-yl)-1H-pyrazol-3-yl)methyl)azetidine-1-carboxylate] showed a pIC50 of 7.00 to 8.00. Cn1c(-c2ccncc2)nc2c(N3CCOCC3)nc(N3CCC(F)(F)C3)nc21 [Compound 101, 4-(2-(3,3-difluoropyrrolidin-1-yl)-9-methyl-8-(pyridin-4-yl)-9H-purin-6-yl)morpholine] gave a pIC50 of 7.00 to 8.00. With CN1Cc2ccc(-c3nc(N4CCOCC4)c4nc(-c5ccncc5)n(C)c4n3)cc2C1=O [Compound 107, 2-methyl-6-(9-methyl-6-morpholino-8-(pyridin-4-yl)-9H-purin-2-yl)isoindolin-1-one] the pIC50 was > 8.00. CC(C)c1ccn(-c2nc(N3CCOCC3)c3nc(-c4ccncc4)n(C)c3n2)n1 [Compound 23] gave a pIC50 of 6.00 to 7.00. In the case of Cn1c(-c2ccncc2)nc2c(N3CCOCC3)nc(-c3cc[nH]n3)nc21 [Compound 49], the pIC50 was 7.00 to 8.00. For Cn1c(-c2ccncc2)nc2c(N3CCOCC3)nc(-c3ccn(-c4ccccc4)n3)nc21 [Compound 46, 9-methyl-6-(morpholin-4-yl)-2-(1-phenyl-1H-pyrazol-3-yl)-8-(pyridin-4-yl)-9H-purine], the pIC50 was 7.00 to 8.00. With Cn1c(-c2ccncc2)nc2c(N3CCOCC3)nc(-n3ccc(C4CCNCC4)n3)nc21 [Compound 21] the pIC50 was 7.00 to 8.00. Compound c1ccc(-c2nc(-c3nc(N4CCOCC4)c4nc(-c5ccncc5)[nH]c4n3)no2)cc1 [Compound 109, 4-(2-(5-phenyl-1,2,4-oxadiazol-3-yl)-8-(pyridin-4-yl)-9H-purin-6-yl)morpholine] has a pIC50 of 7.00 to 8.00. Compound Cn1c(C2=CCOCC2)nc2c(N3CCOCC3)nc(-n3ccc(-c4cccnc4)n3)nc21 [Compound 85, 4-(8-(3,6-dihydro-2H-pyran-4-yl)-9-methyl-2-(3-(pyridin-3-yl)-1H-pyrazol-1-yl)-9H-purin-6-yl)morpholine] has a pIC50 of 7.00 to 8.00. Cn1c(-c2ccncc2)nc2c(N3CCOCC3)nc(-c3cccnc3)nc21 [Compound 104, 4-(9-methyl-2-(pyridin-3-yl)-8-(pyridin-4-yl)-9H-purin-6-yl)morpholine] was tested, and the pIC50 was 7.00 to 8.00. With Cn1c(C2CCNC2)nc2c(N3CCOCC3)nc(-n3ccc(-c4ccccc4)n3)nc21 (centres unmarked) [Compound 90, 4-(9-Methyl-2-(3-phenyl-1H-pyrazol-1-yl)-8-(pyrrolidin-3-yl)-9H-purin-6-yl)morpholine] the pIC50 was 7.00 to 8.00. Cc1nn(-c2nc(N3CCOCC3)c3nc(-c4ccncc4)n(C)c3n2)c(=O)n1-c1ccccc1 [Compound 24] was tested, and the pIC50 was 6.00 to 7.00. CC1CC(c2cccc(-c3nc(N4CCOCC4)c4nc(-c5ccncc5)n(C)c4n3)n2)CCN1 (centres unmarked) [Compound 91, 4-(9-methyl-2-(6-(2-methylpiperidin-4-yl)pyridin-2-yl)-8-(pyridin-4-yl)-9H-purin-6-yl)morpholine] gave a pIC50 of 6.00 to 7.00. Compound Cn1c(-c2ccncc2)nc2c(N3CCOCC3)nc(-c3cccc4c3OCCO4)nc21 [Compound 44] has a pIC50 of 6.00 to 7.00. Cn1c(-c2ccncc2)nc2c(N3CCOCC3)nc(-c3ccc4c(c3)OCO4)nc21 [Compound 99, 4-(2-(benzo[d][1,3]dioxol-5-yl)-9-methyl-8-(pyridin-4-yl)-9H-purin-6-yl)morpholine] showed a pIC50 of 7.00 to 8.00. Work on Cn1c(-c2ccncc2)nc2c(N3CCOCC3)nc(-c3ccnc(C4CC4)n3)nc21 [Compound 97, 4-(2-(2-cyclopropylpyrimidin-4-yl)-9-methyl-8-(pyridin-4-yl)-9H-purin-6-yl)morpholine] yielded a pIC50 of 7.00 to 8.00. Cn1c(-c2ccncc2)nc2c(N3CCOCC3)nc(-c3cccc(C4CCNCC4)n3)nc21 [Compound 3] showed a pIC50 of 7.00 to 8.00. Cn1c(-c2ccncc2)nc2c(N3CCOCC3)nc(-n3ccc(C4CC5(C4)CN(C(=O)OC(C)(C)C)C5)n3)nc21 [Compound 34] showed a pIC50 of 6.00 to 7.00. Work on CN1CCC(c2ccn(-c3nc(N4CCOCC4)c4nc(-c5ccncc5)n(C)c4n3)n2)CC1 [Compound 18] yielded a pIC50 of 6.00 to 7.00. For Cn1c(-c2ccncc2)nc2c(N3CCOCC3)nc(-n3ccc(-c4cncnc4)n3)nc21 [Compound 82, 4-(9-methyl-8-(pyridin-4-yl)-2-(3-(pyrimidin-5-yl)-1H-pyrazol-1-yl)-9H-purin-6-yl)morpholine], the pIC50 was 7.00 to 8.00. CN1CCCC(c2ccn(-c3nc(N4CCOCC4)c4nc(C5CCOCC5)n(C)c4n3)n2)C1 (centres unmarked) [Compound 15] gave a pIC50 of 5.00 to 6.00. Cn1c(-c2ccncc2)nc2c(N3CCOCC3)nc(-n3cc(-c4ccncc4)cn3)nc21 [Compound 93, 4-(9-methyl-8-(pyridin-4-yl)-2-(4-(pyridin-4-yl)-1H-pyrazol-1-yl)-9H-purin-6-yl)morpholine] was tested, and the pIC50 was 7.00 to 8.00. Work on Cn1c(-c2ccncc2)nc2c(N3CCOCC3)nc(-c3ccnn3C3CCCN(C(=O)OC(C)(C)C)C3)nc21 (centres unmarked) [Compound 42] yielded a pIC50 of 6.00 to 7.00. In the case of Cn1c(-c2ccncc2)nc2c(N3CCOCC3)nc(-n3ccc(C4CCN(C(=O)OC(C)(C)C)C4)n3)nc21 (centres unmarked) [Compound 40], the pIC50 was 6.00 to 7.00. Cn1c(-c2ccncc2)nc2c(N3CCOCC3)nc(-n3ccc(C4CCOCC4)n3)nc21 [Compound 25] was tested, and the pIC50 was 6.00 to 7.00. Cn1c(C2CCOCC2)nc2c(N3CCOCC3)nc(-n3ccc(-c4cccc(C#N)c4)n3)nc21 [Compound 39] gave a pIC50 of 5.00 to 6.00. For Cn1c(-c2ccncc2)nc2c(N3CCOCC3)nc(-c3ccnc(C4CCNCC4)n3)nc21 [Compound 108, 4-(9-methyl-2-(2-(piperidin-4-yl)pyrimidin-4-yl)-8-(pyridin-4-yl)-9H-purin-6-yl)morpholine], the pIC50 was > 8.00. Cn1c(-c2ccncc2)nc2c(N3CCOCC3)nc(-n3ccc(C4CC5(CNC5)C4)n3)nc21 [Compound 35] gave a pIC50 of 7.00 to 8.00. Cn1c(C2=CCOCC2)nc2c(N3CCOCC3)nc(-n3ccc(-c4cccc(C#N)c4)n3)nc21 [Compound 36, 3-{1-[8-(3,6-dihydro-2H-pyran-4-yl)-9-methyl-6-(morpholin-4-yl)-9H-purin-2-yl]-1H-pyrazol-3-yl}benzonitrile] was tested, and the pIC50 was 5.00 to 6.00.

Same assay, conditions: values plotted in FIG. 7; read-out: PIKFYVE Biochemistry (IC50)
With c1ccc(-c2nc(-c3cc(N4CCOCC4)nc(OCc4ccncc4)n3)no2)cc1 the pIC50 was < 5.00.
